In patent publication US20150342893A1 (SIGMOID PHARMA LIMITED, priority 2014, published 2015):

Assays:
[1] = Solubilisation measurements of celecoxib in vehicles (oils, surfactants, co-solvents); assay type: physicochemical
Procedure: Solubilisation studies were performed using a wide range of vehicles consisting of oils, surfactants and co-solvents. The vehicles used were Kolliphor® HS 15, Transcutol® P, Kolliphor® EL, Miglyol® 810N, Tween® 20 and Capryol® 90.
Celecoxib was added to measured quantities of the vehicles (excipients) in glass vials. These mixtures were stirred at room temperature on a magnetic stirrer; as an exception, the solubilisation measurements were performed at elevated temperatures in respect of vehicles which were solid at room temperature.

HT29 cells [2] = assay: MTT cell proliferation assay; assay type: cell-based; conditions: Homo sapiens, HT-29, 72 hrs, tested at 20, 30, 50 and 100 μM, read-out: IC50 dose (dose required to reduce cell proliferation by 50% compared to medium)
Procedure: HT29 is a COX-2 positive human colorectal adenocarcinoma cell line and is in particular a model for adenocarcinoma, especially COX-2 positive adenocarcinoma. […] The cells were grown in a humidified atmosphere containing 5% CO2. Cell proliferation was measured using the VybrantMTT assay kit according to the manufacturer's guidelines. HT29 cells (10,000 cells) cells were plated in 100 μl of complete McCoy's 5A media in 96-well tissue culture dishes. […] In the case of celecoxib dissolved in DMSO, the celecoxib was dissolved overnight in DMSO before treatment. Two control groups were employed, one which involved no treatment (referred to as media) and the other which involved treatment with DMSO alone. […] The absorbance (A) was determined in a BioRad 680 microplate reader (BioRad, USA) at 550 nm.

HT29 cells [3] = assay: Annexin V-PE / 7-AAD cell viability and apoptosis assay by flow cytometry; assay type: cell-based, human
Procedure: HT29 is a COX-2 positive human colorectal adenocarcinoma cell line and is in particular a model for adenocarcinoma, especially COX-2 positive adenocarcinoma. The HT29 cell line was grown in McCoy's 5A modified medium supplemented with 1.5 mM L-glutamine, 10% FBS (fetal bovine serum) and 1% penicillin/streptomycin. The cells were grown in a humidified atmosphere containing 5% CO2.
Two control groups were employed, one which involved no treatment (referred to as media) and the other which involved treatment with DMSO alone. Cell viability and the onset of apoptosis was monitored using an Annexin-PE Apoptosis Detection Kit which contains recombinant Annexin V-fluorochrome phycoerythrin (PE) conjugate and the vital dye 7-amino-actinomycin (7-AAD) followed by flow cytometry on a FACSCalibur system using CellQest software (BD Biosciences, USA) . Data for at least 10,000 cells were collected for each analysis made and two-dimensional plots of 7-AAD versus PE were generated.

[4] = cited from earlier work
[5] = at 20° C.; cited from earlier work
[6] = Precipitation of drug during minibead manufacture (surfactant phase in contact with gelatin phase); assay type: physicochemical; conditions: inhibitor added to celecoxib minibead formulation
Procedure: Minibeads containing celecoxib were prepared via a manual drop in oil method. The minibeads were manufactured by combining the surfactant phase (drug dissolved in vehicles) with a gelatin phase (mixture of gelatin, water, sorbitol and SDS) and mixing at approximately 60° C. Droplets of the mixture were then allowed to fall into a bath of cooling/hardening oil (Miglyol® 810N) at approximately 10° C. As the mixture droplets fall in air, coacervation occurs to form a coacervate suspension in which droplets of the surfactant phase are surrounded by a layer of gelatine (multiple coacervates exist within a single minibead). The dropping of the minibead into a cooling/hardening bath allows the minibeads to harden before being recovered for drying. […] A range of oils was investigated (olive oil, mineral oil and other medium chain triglycerides) for use as the cooling/hardening oil in the production of minibeads. […] The minibeads were then air dried for 24 hr (over this time the water in the formulation evaporated). In some of the formulations other components were added to the gelatin phase to prevent precipitation of drug during manufacturing and also to help maintain the minibead structure.
Similar formulations were produced in which the drug loading was increased to 9-10% w/w, however precipitation was evident for these formulations on contact of the surfactant phase with the gelatin phase. […]

Cc1ccc(-c2cc(C(F)(F)F)nn2-c2ccc(S(N)(=O)=O)cc2)cc1 [Celecoxib, celecoxib]
solubility of celecoxib in Capryol 90 ([1]; vehicle Capryol 90, range between transparent and cloudy): 58 to 64 mg/g | solubility of celecoxib in 2-(2-ethoxyethoxy)ethanol (Transcutol P) ([1]; vehicle Transcutol P): 345 to 390 mg/g | maximum solubility of celecoxib in ethanol ([1]; vehicle ethanol): 100 to 125 mg/g | IC50 (HT29 cells [2]): > 100 µM | % of cells that died by necrosis (HT29 cells [3]; 50 μM, 72 h): 13.96±2.48% | combined % of cells that died via apoptosis (late and early apoptosis) (HT29 cells [3]; 50 μM, 72 h): 17.02±1.63% | viability at 50 µM (HT29 cells [3]; Homo sapiens, HT-29, 72 h, n=6, read-out: % viable cells): 69 ± 2.71% | Log P [4]: 3.5 | aqueous solubility [5]: 3 to 7 µg/mL

CC(=O)Oc1c(C)c(C)c2c(c1C)CCC(C)(CCC[C@H](C)CCC[C@H](C)CCCC(C)C)O2 (stereo partly shown) [Vitamin E Acetate, vitamin E acetate]
Effect (potential precipitation inhibitor) [6]: Effective precipitation inhibitor but negative
